The values below come from ChEMBL document CHEMBL3352580, “Teucrium polium phenylethanol and iridoid glycoside characterization and flavonoid inhibition of biofilm-forming Staphylococcus aureus” (2015).

Active and inactive are the calls of the source. The calls are words filed in the database; no cut-off is given here.

In assay [1] the test system is Staphylococcus aureus. As to the kind of experiment: Inhibition of biofilm formation in Staphylococcus aureus AH133 transformed with GFP assessed as zone of inhibition at 16 mg/ml after 24 hrs by confocal laser scanning microscopy. The note with it: for zone of inhibition at 16000 µg/mL: AH133, 24 h, read-out: IZ. The assay is classed as functional.
Assay [2] concerns Staphylococcus aureus. The assay can be described thus: Inhibition of biofilm formation in Staphylococcus aureus AH133 transformed with GFP assessed as zone of inhibition at 10 to 20 ug/disc after 24 hrs by confocal laser scanning microscopy. The assay is classed as functional, organism-based.
Assay [3] deals with Staphylococcus aureus. The assay can be described thus: Inhibition of biofilm formation in Staphylococcus aureus AH133 transformed with GFP assessed as zone of inhibition at 40 to 80 ug/disc after 24 hrs by confocal laser scanning microscopy. The assay is classed as functional, organism-based.
Assay [4] has as its system Staphylococcus aureus. The assay can be described thus: Inhibition of biofilm formation in Staphylococcus aureus AH133 transformed with GFP assessed as reduction in recovery of CFU at 80 ug/disc after 24 hrs by confocal laser scanning microscopy. The assay is classed as functional, organism-based.

For the compound `CC1(C)S[C@@H]2[C@H](NC(=O)[C@H](N)c3ccccc3)C(=O)N2[C@H]1C(=O)O`, in the assay on Staphylococcus aureus [1], the inhibition entry is “Active”.

Consider `O=c1cc(-c2ccc(O)c(O)c2)oc2cc(O)c(O)c(O)c12` [6-HYDROXYLUTEOLIN], for which the inhibition result in the assay with Staphylococcus aureus [2] is “inactive”. In addition, the inhibition entry in the assay on Staphylococcus aureus [3] and with Staphylococcus aureus [4] was “Active” each time. The zone of inhibition at 16000 µg/mL in the assay on Staphylococcus aureus [1] is 8 mm.

Turning to `COc1cc2oc(-c3ccc(O)c(O)c3)cc(=O)c2c(O)c1OC` [CIRSILIOL], the inhibition result in the assay with Staphylococcus aureus [2] was “inactive”. For the same compound, the inhibition result in the assay on Staphylococcus aureus [3] and in the assay on Staphylococcus aureus [4] was “Active” in each case. Besides, the zone of inhibition at 16000 µg/mL with Staphylococcus aureus [1] amounted to 10.3 mm.
